Columns and labels:
[1] = tested on: BT-474 human breast adenocarcinoma; test: BT-474 xenograft tumor growth inhibition in athymic female mice; assay type: in vivo
Method: The activity of the compounds of formula 1, in vivo, can be determined by the amount of inhibition of tumor growth by a test compound relative to a control. The tumor growth inhibitory effects of various compounds are measured according to the method of Corbett T. H., et al., “Tumor Induction Relationships in Development of Transplantable Cancers of the Colon in Mice for Chemotherapy Assays, with a Note on Carcinogen Structure”, Cancer Res., 35, 2434-2439 (1975) and Corbett T. H., et al., “A Mouse Colon-tumor Model for Experimental Therapy”, Cancer Chemother. Rep. (Part 2)”, 5, 169-186 (1975), with slight modifications. Tumors are induced in the left flank by subcutaneous (sc) injection of 5 million log phase cultured tumor cells (BT-474 human breast adenocarcinoma) suspended in Matrigel (1:1 in PBS). […] Rep., 3, 1-104 (1972). Results are expressed as percent inhibition, according to the formula: Inhibition (%)=(TuWcontrol−TuWtest)/TuWcontrol×100%. The flank site of tumor implantation provides reproducible dose/response effects for a variety of chemotherapeutic agents, and the method of measurement (tumor diameter) is a reliable method for assessing tumor growth rates.
Statistical Analysis: The statistical analysis of tumor growth was done using SAS Version 8, PROC GLM by Non-clinical statistical group.

[2] = Whole blood pharmacokinetics of agent 182 in BT-474 tumor-bearing mice (LC-MS/MS); assay type: in vivo; settings: for Cmax: mouse; for Cave0-2 h of Agent 182: day 28
Method: (§1) Whole blood samples (˜50 μl) were collected at 0.5, 1, 2, 4 & 8 h post-dose on day 28 for PK analysis as described below. Tumors were isolated 0.5 h post-dose on day 28 for PD analysis by ELISA.
Blood Sample Analysis: Aliquots (100 μL) of whole blood were diluted with 100 μL acetonitrile (25%) containing an internal standard (CP-702,453, 0.5 μg/ml). Samples were extracted with methyl-tert-butyl ether (MTBE) and 0.1M sodium hydroxide by liquid-liquid extraction using a 96-well technology. After brief vortexing, samples were centrifuged (3000 rpm for 10 min) and the supernatant was transferred into a 96-well plate and evaporated to dryness at 40° C. under a slow stream of nitrogen gas. The residue was reconstituted with 200 μL of 25% acetonitrile and vortexed for approximately 2 min.
The mobile phase was delivered as 90% 10 mM ammonium acetate with 0.1% formic acid and 10% acetonitrile for the first 1 min followed by a linear gradient from 10% to 90% acetonitrile over 1 min. Then the mobile phase was delivered isocratically at 90% acetonitrile for 1 min before a subsequent gradient back to 10% acetonitrile over 0.1 min. The column was then allowed to re-equilibrate at 90% 10 mM ammonium acetate with 0.1% formic acid and 10% acetonitrile for 1.0 min before the next sample injection.
Data collection and integration were accomplished using Analyst (version 1.2). The ratio of peak area responses of drug relative to internal standard was used to construct a standard curve using a linear least squares regression with a 1/x weighting. The dynamic range of the assay was 1.0 to 1000 ng/mL. The performance of the assay was monitored by inclusion of quality control samples prepared in mouse whole blood from a separate weighing. Further details are located in notebook #62874.
PK Data Calculation: Pharmacokinetic parameters were determined by the noncompartmental methods using WinNonLin™, version 3.2. The maximum whole blood concentration (Cmax) and the time at which this concentration was achieved (Tmax) were directly taken from the raw data. Area under the whole blood concentration versus time curve (AUC) was calculated using linear trapezoidal approximation. For estimation of the means and pharmacokinetic parameters, concentrations at the 0 hr and those <LLOQ (1 ng/mL) were assumed to be 0 ng/mL. The means were calculated only if more than 50% of the data exceeded LLOQ of the assay.

[3] = biological target: T1, erbB2-autophosphorylation (p-erbB2) (Homo sapiens, UniProt P04626); test: Tumor p-erbB2 reduction (PD) by ELISA in BT-474 tumor-bearing mice; assay type: in vivo; settings: 0.5 hr after dosing on day 28
T1 construct: endogenous in cells; host or cells: BT-474 human breast adenocarcinoma cells grown as subcutaneous xenografts in female athymic mice
Method: as §1
The p-erbB2 levels, i.e., the level of the phosphorylated form of erbB2, were also determined in tumor samples of all groups at 0.5 hr post-dosing on day 28 (Table 5).

[4] = Body weight and tolerability in BT-474 tumor-bearing mice
Method: Cells were inoculated SC (5 million cells/animal) into female athymic mice. […] The tumor measurements and body weight changes were obtained on days 1, 5, 8, 12, 15, 19, 22, 26 and 28. Tumor volume was calculated by the following formula: Tumor volume (mm^3)=(W×W)/2×L (L=length & W=width).
• Values given represent the average tumor volume (mm^3) ±SE; Values in parenthesis are the average body weight (g). • % Growth Inhibition=[Tumor volume on day 28 of treated group (mm^3)×100/Tumor volume on day 28 of vehicle group (mm^3)]−100 • % Regression=[Tumor volume on day 28 (mm^3)×100/Tumor volume on day 1(mm^3)]−100

T1 sequence (P04626 23-1255): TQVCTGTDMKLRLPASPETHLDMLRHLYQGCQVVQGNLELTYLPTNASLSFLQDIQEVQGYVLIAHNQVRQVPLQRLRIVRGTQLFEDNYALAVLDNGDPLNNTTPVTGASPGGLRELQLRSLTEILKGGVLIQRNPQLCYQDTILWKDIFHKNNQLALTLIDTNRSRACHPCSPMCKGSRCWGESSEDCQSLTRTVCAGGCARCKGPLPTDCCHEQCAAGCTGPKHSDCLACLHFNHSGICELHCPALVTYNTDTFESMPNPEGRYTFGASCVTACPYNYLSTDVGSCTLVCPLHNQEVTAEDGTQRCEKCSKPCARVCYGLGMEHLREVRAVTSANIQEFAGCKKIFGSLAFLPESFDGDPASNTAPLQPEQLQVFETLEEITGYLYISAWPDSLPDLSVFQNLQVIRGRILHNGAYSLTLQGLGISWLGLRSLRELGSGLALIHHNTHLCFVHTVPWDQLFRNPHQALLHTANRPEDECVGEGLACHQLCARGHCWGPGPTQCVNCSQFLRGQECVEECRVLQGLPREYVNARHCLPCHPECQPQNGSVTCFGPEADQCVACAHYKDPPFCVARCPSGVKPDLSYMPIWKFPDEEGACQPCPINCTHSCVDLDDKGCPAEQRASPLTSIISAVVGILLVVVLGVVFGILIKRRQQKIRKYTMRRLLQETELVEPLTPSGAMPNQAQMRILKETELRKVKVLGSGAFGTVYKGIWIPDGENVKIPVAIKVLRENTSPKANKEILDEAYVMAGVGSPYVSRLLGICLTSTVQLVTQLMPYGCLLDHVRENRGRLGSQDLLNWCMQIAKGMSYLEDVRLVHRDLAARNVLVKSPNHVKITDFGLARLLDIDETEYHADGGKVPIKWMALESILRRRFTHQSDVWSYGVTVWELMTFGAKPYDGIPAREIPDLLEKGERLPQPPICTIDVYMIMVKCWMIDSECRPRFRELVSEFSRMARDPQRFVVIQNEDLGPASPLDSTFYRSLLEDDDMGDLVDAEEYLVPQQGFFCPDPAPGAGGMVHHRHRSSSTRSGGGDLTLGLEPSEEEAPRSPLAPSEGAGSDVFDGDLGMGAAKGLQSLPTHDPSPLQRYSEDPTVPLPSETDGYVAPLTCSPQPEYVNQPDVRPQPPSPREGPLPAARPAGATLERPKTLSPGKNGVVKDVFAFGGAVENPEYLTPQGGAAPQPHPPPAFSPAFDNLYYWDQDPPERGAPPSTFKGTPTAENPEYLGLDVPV

## COCC(=O)NC/C=C/c1ccc2ncnc(Nc3ccc(Oc4ccc(C)nc4)c(C)c3)c2c1 [Agent 182, E-2-Methoxy-N-(3-{4-[3-methyl-4-(6-methyl-pyridin-3-yloxy)-phenylamino]-quinazolin-6-yl}-allyl)-acetamide]
[1]; 28 days, Agent 182 50 mg/kg PO QD
  % Growth inhibition: 40%
[1]; Agent 182 25 mg/kg PO QD
  Tumor volume Day 28: 327 ± 45 mm^3
[1]; Agent 182 50 mg/kg PO QD
  Tumor volume Day 28: 246 ± 36 mm^3
[1]; background statement
  Efficacy against BT-474 tumors which over-express erbB2: efficacious
[2]; female, athymic, whole blood, po, 25 mg/kg
  Cmax: 365 ng/mL
[2]; female, athymic, whole blood, po, 50 mg/kg
  Cmax: 2440 ± 740 ng/mL
[2]; in vivo, 25 mg/kg group, earlier observations
  Cmax: 417 to 967 ng/mL
[2]; whole blood, Agent 182 25 mg/kg PO QD
  Cave0-2 h of Agent 182: 186 ± 71 ng/mL
[2]; whole blood, Agent 182 50 mg/kg PO QD
  Cave0-2 h of Agent 182: 1050 ± 330 ng/mL
[3]; Agent 182 25 mg/kg PO QD, 25 mg/kg
  % Reduction of erbB2-autophosphorylation: 16 ± 5 (N = 3) %
[3]; Agent 182 25 mg/kg PO QD, listed as agent 182, 25 mg/kg
  % Reduction of erbB2-autophosphorylation: Approximately 16%
[3]; Agent 182 50 mg/kg PO QD
  % Reduction of erbB2-autophosphorylation: 57 ± 5 (N = 4) %
[4]; Agent 182 25 mg/kg PO QD
  Average body weight Day 1: (21) g
  Average body weight Day 28: (23) g
[4]; Agent 182 50 mg/kg PO QD
  Average body weight Day 1: (23) g
  Average body weight Day 28: (25) g

Source: patent publication US20050101618A1, “Selective erbB2 inhibitor/anti-erbB antibody combinations in the treatment of cancer” (Pfizer Inc, priority 2003, published 2005)
